Experimental data from US20040014772A1, “Compositions and methods for treating glomerular disorders” (priority 2000, published 2004).
“Also recorded” adds a separate entry of the source.

Tests used:
[1] = Weight loss/gain of rats before and after treatments (PAN-induced nephrotic syndrome); format: in vivo, rat; conditions: for Body weight After Treatment (day7): rats, day 7, PAN 7.5 mg/100 g BW iv, CM 120 mg/kg ip twice a day, PB 400 mg/kg ip every other day, means ± SE
Experimental: (§1) Two different general CYP inhibitors were used, cimetidine (CM) and piperonyl butoxide (PB). Cimetidine has imidazole and cyano groups that inhibit CYP by interacting with the heme moiety. […] To determine the effect of the CYP inhibitors in PAN- induced nephrotic syndrome, CM (120 mg/kg BW) was administered intraperitoneal 1 h prior to PAN injection and then twice a day. Piperonyl butoxide (PB) which yields a metabolite that binds to the heme moiety of CYP, was given intraperitoneal (400 mg/kg BW) 4h before PAN injection and then every other day.
Also, the CYP2B1 inhibitor piperine (PIP), a methylenedioxyphenyl compound found in black and red pepper was used. PIP is believed to inhibit CYP2B1 by forming an inhibitory complex therewith. PIP was administered at a dose of 85 mg/kg of body weight (BW) by an intraperitoneal injection 16 hours prior to PAN injection and then once a day.

[2] = system: CYP2B1; assay: CYP2B1 content in glomeruli (immunohistochemistry, western blot); format: in vivo, rat; conditions: PAN-treated rats, 6 hours to day 7
Excerpt: The microsome fraction obtained was subjected to SDS-page electrophoresis in 1 mm slab gels. The separated forms were transferred from gel to a nitrocellulose sheet using a Mini Trans-blot electroblotting unit. The primary antibodies were monoclonal anti-HO-1 (OSA-111, StressGen, Victoria, BC, Canada) and monoclonal anti-CYP2B1 (PM25, Oxford Biomedical Research, Oxford, Mich., USA). Subsequent to primary and secondary antibody (peroxidase-labeled) treatment, the blots were visualized by enhanced chemiluminescence method. Kidney cortical sections were fixed in 10% buffered formalin for 6 hours and embedded in paraffin. After deparaffinization and antigen retrieval, the sections were immunolabeled and visualized according to an avidin-biotin complex (ABC) method. The primary antibody for detection of ferritin was polyclonal anti-Ferritin (L subunit) antibody (605022; Boehringer Mannheim Corp., Indianapolis, Ind., USA).

[3] = system: PAN-induced nephrotic syndrome; assay: PAN-induced nephrotic syndrome: proteinuria and serum albumin; format: in vivo, rat; conditions: PAN-treated rats; for proteinuria: daily urine protein to day 7; for serum albumin: day 7
Experimental: (§2) Male Sprague-Dawley rats weighing 200-250 g were injected either saline or a single intravenous injection of PAN (Sigma, St. Louis) in a dose of 7.5 mg/100g BW (day 0) as described in Ueda et al, 19996, Kidney Intl. 49:370-373. Animals were housed in separate metabolic cages and allowed free access to rat chow (Purina). Daily urine protein excretion was determined and animals were sacrificed on day 7. Blood was obtained for the measurement of serum albumin and the evaluation of renal function as measured by blood urea nitrogen (BUN) and plasma creatinine. Cell fraction of the glomeruli was prepared for bleomycin detectable iron assay. The microsome fraction was utilized for the measurement of CYP content.
as §1
PIP is believed to inhibit CYP2B1 by forming an inhibitory complex therewith. PIP was administered at a dose of 85 mg/kg of body weight (BW) by an intraperitoneal injection 16 hours prior to PAN injection and then once a day.

[4] = system: HO-1; assay: HO-1 induction in GEC exposed to PAN (western blot); format: cell-based, rat; conditions: PIP 0.2 mM, CM 2 mM, pyruvate 10 mM
Excerpt: The microsome fraction obtained was subjected to SDS-page electrophoresis in 1 mm slab gels. The separated forms were transferred from gel to a nitrocellulose sheet using a Mini Trans-blot electroblotting unit. The primary antibodies were monoclonal anti-HO-1 (OSA-111, StressGen, Victoria, BC, Canada) and monoclonal anti-CYP2B1 (PM25, Oxford Biomedical Research, Oxford, Mich., USA). Subsequent to primary and secondary antibody (peroxidase-labeled) treatment, the blots were visualized by enhanced chemiluminescence method.

[5] = system: cytochrome P450; assay: Cytochrome P450 content of microsome fraction (CO difference spectrum); conditions: for CYP content in kidney / glomeruli: PAN-treated rats, day 7
Experimental: as §2

[6] = system: ferritin; assay: Ferritin immunohistochemistry in kidney of PAN-treated rats; format: in vivo, rat
Experimental: Kidney cortical sections were fixed in 10% buffered formalin for 6 hours and embedded in paraffin. After deparaffinization and antigen retrieval, the sections were immunolabeled and visualized according to an avidin-biotin complex (ABC) method. The primary antibody for detection of ferritin was polyclonal anti-Ferritin (L subunit) antibody (605022; Boehringer Mannheim Corp., Indianapolis, Ind., USA).

[7] = system: glomeruli of PAN-treated rats; assay: Bleomycin detectable iron assay in glomeruli of PAN-treated rats; format: in vivo, rat; conditions: for bleomycin detectable iron content in the glomeruli: PAN-treated rats, CM 120 mg/kg, PB 400 mg/kg or PIP 85 mg/kg ip, 6 hours, day 4, day 7
Experimental: Glomeruli were isolated by a combination of sieving and differential centrifugation as described in Ueda et al, 19996, Kidney Intl. 49:370-373, and Baliga et al, 1992, Am. J. Physiol. 263:214-221. Glomeruli isolated from two rats were pooled together (as N of 1) for the isolation of microsomes. Iron capable of catalyzing free radical reactions was measured by bleomycin detectable iron assay as described by Gutteridge et al, 1981, Biochem. J. 199:263-265, Gutteridge et al, 1982, Biochem. J. 206:605-609, Baliga et al, 1993, Bioche.

[8] = system: glomerular epithelial cells GEC; assay: PAN induced hydroxyl radical formation in GEC (deoxyribose degradation); format: cell-based, rat; conditions: PAN 1.5 mM 1 h; preincubation CM 2 mM, PB 25 μM, RN 1 mM, PIP 0.2 mM, pyruvate 10 mM
Experimental: 2-deoxy-D-ribose in a final concentration of 3 mM was added to the medium just prior to the incubation. At the end of the incubation, the incubation medium was collected for the measurement of hydroxyl radical formation by deoxyribose degradation method as in Baliga et al (Kidney Intl. 1996, 50:1118-1124.).
Confluent GEC monolayer was washed twice with HBSS and then incubated with 1.5 mM PAN in HBSS for a period of time before substantial cell killing occurs (1 h) at 37° C. 2-deoxy-D-ribose in a final concentration of 3 mM was added to the medium just prior to the incubation. At the end of the incubation, the incubation medium was collected for the measurement of hydroxyl radical formation by deoxyribose degradation method described in Baliga et al, 1996, Kidney Int. 50:1118-1124. To determine the effect of CYP inhibitors on the hydroxyl radical formation, GEC monolayers were preincubated with CM, RN or PB as mentioned above.

Compound	Body weight After Treatment (day7) [1] [g]	CYP2B1 content in the glomeruli [2]	proteinuria [3]	proteinuria ([3]; listed as C<)	serum albumin [3]	HO-1 induction in GEC [4]	CYP content in kidney / glomeruli [5]	ferritin content in the glomeruli and the tubules [6]	bleomycin detectable iron content in the glomeruli [7]	hydroxyl radical formation in GEC [8]	ascites and weight gain at the time of sacrifice ([1]; compared to control animals and those treated with CYP inhibitors)	CYP content in the liver ([5]; PAN treated vs untreated rats)	catalytic iron content in the glomeruli (bleomycin detectable iron assay) ([7]; rats 7 days after PAN 7.5 mg/100 g BW iv, control value 39, N=3, P<0.01) [nmol/mg protein]
CN/C(=N/CCSCc1nc[nH]c1C)NC#N [CM, cimetidine]	253 ± 9	preserved	substantial protection	significant protection	prevented	significantly prevented the induction	significantly preserve	markedly reduced the up-regulation	significantly prevent the increase; also recorded: significantly prevented this increase	markedly reduce; also recorded: significantly reduced			
CN(C)c1ncnc2c1ncn2[C@@H]1O[C@H](CO)[C@@H](N)[C@H]1O [PAN, puromycin aminonucleoside]	291 ± 8	marked decrease	significant proteinuria on the fourth day; also recorded: nephrotic range proteinuria		markedly decreased; also recorded: significant decrease	marked induction	not detectable	significant increase	markedly elevated	significant increase; also recorded: significant production	developed ascites and significant weight gain	no difference	160
